We go through two compounds from US6288089A, “Use of kinase inhibitors for treating neurodegenerative diseases” (priority 1999, dated 2001).

Entries after “also recorded” stand apart in the source; their conditions may differ.

Assay [1] concerns TH+ dopamine neurons of E15 rat mesencephalic primary cultures. In kind it is cell-based. The note with it: 20 h serum withdrawal.
Assay [2] deals with TH+ dopamine neurons of E15 rat ventral mesencephalic cultures. The note with it: 10 μM; 18 h serum-free.
Source text: To make this determination, select rat embryonic mesencephalic cultures were double stained for both the TH dopaminergic cell marker and for nuclear characteristics indicative of apoptosis. […] Following 18 hrs under these conditions, cultures were immunostained using anti-rat TH primary antibody followed by a fluorescent (FITC-conjugated) secondary antibody. Subsequently, cells were stained with a fluorescent Hoechst 33258 DNA dye. Only those cells containing nuclear chromatin condensations (pyknotic nuclei) were scored as apoptotic. Cells containing intact nuclei -were counted as healthy. In the entire experiment, a total of 5066 TH-immunoreactive neurons were examined for nuclear chromatin condensation. Four sample groups were tested:
In this Example, experiments to study tyrosine hydroxylase-positive apoptotic cells were conducted. E15 rat ventral mesencephalic cultures were grown in F12 medium containing 5% human placental serum for 24 hrs. […] Next, cultures were washed with PBS and fixed for 2 min in 1% paraformaldehyde followed by further fixation in 70% ethanol in glycine buffer at -20° C. for 10 min. […] Cells containing intact nuclei were counted as healthy. […] In the entire experiment, total of 5066 TH-immunoreactive neurons were examined for the nuclear chromatin condensation under a fluorescence microscope.
For assay [3], the system named is transplanted embryonic rat ventral mesencephalic dopamine neurons. As to conditions: tissue preincubated 2 h with 10 μM; six weeks after transplantation.
Procedure: Following the incubation, the tissue was immediately transplanted into the denervated rat striatum. Six weeks after transplantation, TH+ cells within the striatum were visualized following sacrifice of the animals, and cryotome sectioning and immunostaining for tyrosine hydroxylase (TH) using a polyclonal anti-rat TH primary antibody.
For the transplantation, one-half embryonic day 15 (E15) rat ventral mesencephalon was extruded into a strand using a 0.2 mm in diameter glass cannula made by heating a glass luer adaptor (Kimble-Kontes, Cat# 663500-0444). […] Following incubation, the tissue was immediately transplanted into the denervated rat striatum. The tissue strand was drawn up into a 24 g sterile stainless steel cannula attached to a microliter syringe and stereotaxically transplanted at the following coordinates (AP 0.0 mm form bregma, LAT3.0 mm form the midline, VD-3.5 to -7.5 mm below the dura) in 4.0 μl over 4 min.
Visualization of TH+ cells: Six weeks after transplantation, all animals were sacrificed, and their brains perfused with heparinized-saline followed by 4% paraformaldehyde. […] All TH-immunoreactive neurons were counted in every third section under a microscope. Abercrombie's correction was used to estimate the total number of TH+ neurons surviving in each transplant.

For `Oc1ccc(-c2nc(-c3ccc(F)cc3)c(-c3ccncc3)[nH]2)cc1` [SB 202190], the “surviving TH+ neurons/cm^2” value in assay [1] (1 μM inhibitor, serum control […]±30, no serum 283±32) came out at 537±37 TH+ neurons/cm^2. Also, the “concentration at which the survival effect on TH+ neurons reached its maximum” value in assay [1] (0.1-10 μM tested) turned out to be 1 µM.
With `C[S+]([O-])c1ccc(-c2nc(-c3ccc(F)cc3)c(-c3ccncc3)[nH]2)cc1` (stereo not shown) [SB 203580], the “anti-apoptotic effect in dopamine neurons after serum withdrawal” value in assay [2] is “significant (p<0.001), although less dramatic than that of PD169316; also recorded: significant (p<0.001) although less dramatic than that of PD169316”. The “number of surviving dopamine neurons (TH+ cells) compared to sham-pretreated transplants” value in assay [3] was “intermediate level”.
